How the values were obtained:
Nur77 = Nur77 subcellular distribution (nuclei-cytoplasmic fractioning, Western blot) in PC12 cells; assay type: cell-based, rat
Method: PC12 cells were obtained from ATCC CRL 1721 (VA, USA) and were grown in phenol red-free RPMI 1640 medium supplemented with 5% fetal calf serum (FCS), 10% horse serum and gentamicin (50 μg/ml). They were cultured on Primaria 6-well plates (BD Falcon, Ontario, Canada) for RT-PCR experiments and immunoblotting; on Primaria 96-wells plates for LDH cytoxicity experiments and finally on poly-L-lysine-coated circular glass coverslips for immunocytofluorescence assays. Cells were fed fresh medium every 3 days and maintained at 37° C. in a humidified 5% CO2 atmosphere. […] Control conditions were without toxin. […] For the present study, kinetic time periods were: 0 h, 3 h, 6 h, 9 h, 12 h and 24 h. After each experiment, culture medium was harvested for cytotoxicity detection and cells were collected for RT-PCR and ICF/Fractioning (Gelinas & Martinoli 2002; Gagne et al. 2003; Gelinas et al. 2004; Chiasson et al. 2006).
PC12 cells were grown and treated in 6-wells plates. We used a nuclear extraction kit (Active Motif, Carlsbad, Calif.) to separate cytoplasmic protein content from nuclear protein content. Briefly, cells were washed in wells with a mixture of PBS and phosphatase inhibitors, and then harvested in centrifuge tubes. Hypotonic buffer swelled cytoplasmic membrane, which an afterward mild detergent ruptured.
Centrifugation at 14,000×g pelleted the intact nuclei, and soluble material was preserved as the cytoplasmic fraction. Nuclei were the lysed with the provided lysis buffer. Protein dosage was performed with a bicinchoninic acid (BCA)-based SDS-compatible Protein Assay Kit (Pierce, Rockfort, Ill.) on each fraction of each sample.
Equal amounts of nuclei or cytoplasmic protein fractions were loaded onto a 10% polyacrylamide-SDS gel. After electrophoretic separation (180 volts, 45 min.) the polyacrylamide gels were transferred onto […] (PVDF) membranes (0.22 μm pore size, Bio-Rad) at 50 V for 2 h. The membranes were blocked with 5% non-fat powder milk for 1 h. […] Quantitative analysis was performed with the Fluor Chem SP software.

PC12 cells = test: LDH cytotoxicity in PC12 cells; assay type: cell-based
Method: They were cultured on Primaria 6-well plates (BD Falcon, Ontario, Canada) for RT-PCR experiments and immunoblotting; on Primaria 96-wells plates for LDH cytoxicity experiments and finally on poly-L-lysine-coated circular glass coverslips for immunocytofluorescence assays. Cells were fed fresh medium every 3 days and maintained at 37° C. in a humidified 5% CO2 atmosphere. […] Control conditions were without toxin.
Briefly, media were collected and centrifuged at 800×g at 4° C. for 2 min. The cell-free supernatant (100 μl) was then used to determine LDH activity by measuring the absorbance at a wavelength of 490 nm (A490) on a microplate reader (Multiscan Ascent Microplate reader, Thermolab System, Franklin Mass.) according to the working procedures of Roche's protocol. Total cellular LDH was determined by lysing cells with 1% Triton X-100.

nigral TH neurons = test: MPTP lesions in mice, stereological counts of TH-immunoreactive neurons; assay type: in vivo; conditions: Nur77 (+/+) mice, 7 i.p. injections MPTP-HCl 20 mg/kg, 14 days after last injection
Excerpt: Wild-type (Nur77(+/+)) male (C57BL/6, weighing 20-25 g) mice were purchased from Charles River, Canada. Nur77 knockout (Nur77(−/−)) mice were developed and graciously provided by Dr Jeff Milbrandt at the Washington University, St. Louis, Mo., USA (Lee et al., 1995). These mice are healthy and reproduce normally (Crawford et al., 1995; Lee et al., 1995). They were produced in a mixed background and have been backcrossed into the C57BL/6 strain for at least ten generations to reduce genetic background heterogeneity (Jeff Milbrandt, personal communication). We maintain a Nur77(−/−) mouse colony at the animal care facility of our research center. Young adult Nur77(−/−) male mice weighing 20-25 g were used for present experiments. All mice were housed three or four per cage in a temperature-controlled environment and maintained under a 12-h light-dark cycle with ad libitum access to food and water.
In total, 17 mice (8 Nur77 (+/+) and 9 Nur77 (−/−)) received seven intraperitoneal (i.p.) injections of MPTP-HCl (20 mg/kg free base; Sigma, St. Louis, Mo.) dissolved in NaCl 0.9%. MPTP was administered twice on the first 2 days of the experimental protocol at an interval of 12 h and once a day on 3 subsequent days (Tremblay et al. 2006; Gibrat et al., 2010). […]
The loss of DA neurons was determined by counting TH-immunoreactive cells under bright-field illumination. […]

## CCC(=C/[C@H](C)C/C=C/C(C)=C/[C@@H](C)C(=O)[C@@H](C)[C@H](O)[C@@H](C)C/C(C)=C/C(=O)O)/C=C/[C@@H]1OC(=O)C=C[C@@H]1C [LMB, leptomycin B]
Nur77; 6-OHDA 30 μM, co-incubation with LMB 1 nM
  6-OHDA-induced translocation of Nur77 from the nucleus to the cytosol: blocked
PC12 cells; LMB alone
  PC12 cell survival: no effect
PC12 cells; PC12 cells, co-incubation of LMB with 6-OHDA, 24 h
  6-OHDA induced cell death: significant reduction

## C[n+]1ccc(-c2ccccc2)cc1 [MPP+, 1-methyl-4-phenylpyridinium ion]
Nur77; MPP+ 5 mM
  beginning of Nur77 protein translocation from the nucleus to the cytosol: 6 h

## CC/C=C\C/C=C\C/C=C\C/C=C\C/C=C\C/C=C\CCC(=O)O [DHA, docosahexaenoic acid]
PC12 cells; PC12 cells, 6-OHDA 30 μM, co-incubation with DHA 10^−6 M
  cytotoxicity induced by 6-OHDA: significantly reduced
PC12 cells; PC12 cells, MPP+ 5 mM, co-incubation with DHA 10^−6 M
  cytotoxicity induced by MPP+: significantly reduced

## CN1CC=C(c2ccccc2)CC1 [MPTP, 1-methyl-4-phenyl-1,2,3,6-tetrahydropyridine]
Nigral TH neurons
  number of nigral TH neurons: significantly reduced

— patent US20100298434A1, “NEUROPROTECTION AND PREVENTION OF DOPAMINERGIC CELL DEATH BY TARGETING NUR77 TRANSLOCATION” (priority 2009, published 2010)
